The values that follow come from patent publication US20250017914A1, “6-AZA-QUINOLINE DERIVATIVES AND RELATED USES” (Black Diamond Therapeutics, Inc., priority 2021, published 2025).

Some results are limits rather than exact numbers.

The target of the first test is T1, BaF3 BRAF-KIAA1549 fusion cells (Homo sapiens, UniProt P15056).
T1 construct: The BRAF-KIAA1549 fusion mutant was subcloned into pMXs-IRES-Blasticidin (RTV-016, Cell Biolabs, San Diego, CA); No tag given; Q9HCM3 (UPF0606 protein KIAA1549)
T1 sequence (P15056 whole entry, change not shown, the tested form may be a part): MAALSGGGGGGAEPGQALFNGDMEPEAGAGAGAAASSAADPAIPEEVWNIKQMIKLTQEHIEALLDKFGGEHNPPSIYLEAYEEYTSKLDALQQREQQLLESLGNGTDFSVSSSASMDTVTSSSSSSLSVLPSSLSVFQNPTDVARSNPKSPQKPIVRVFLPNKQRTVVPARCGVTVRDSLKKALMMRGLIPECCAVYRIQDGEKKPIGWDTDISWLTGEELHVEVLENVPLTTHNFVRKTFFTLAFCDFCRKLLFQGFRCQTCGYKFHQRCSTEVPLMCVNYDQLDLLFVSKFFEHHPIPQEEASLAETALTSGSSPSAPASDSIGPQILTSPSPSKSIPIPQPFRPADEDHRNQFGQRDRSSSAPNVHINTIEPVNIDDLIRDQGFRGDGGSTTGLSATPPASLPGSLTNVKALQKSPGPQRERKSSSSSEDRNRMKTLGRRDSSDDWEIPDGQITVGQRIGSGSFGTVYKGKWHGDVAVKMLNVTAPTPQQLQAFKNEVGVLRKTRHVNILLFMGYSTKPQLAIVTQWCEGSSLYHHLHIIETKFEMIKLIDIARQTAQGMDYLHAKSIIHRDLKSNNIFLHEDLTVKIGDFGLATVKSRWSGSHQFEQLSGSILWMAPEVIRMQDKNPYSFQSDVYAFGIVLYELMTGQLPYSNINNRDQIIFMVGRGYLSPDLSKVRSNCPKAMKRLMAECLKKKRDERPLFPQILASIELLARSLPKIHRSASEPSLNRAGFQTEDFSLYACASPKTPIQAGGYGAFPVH
Kind of test: BaF3 BRAF-KIAA1549 fusion cell proliferation assay (CellTiterGlo, 96 hours). The format is cell-based. Particulars: Table A1. The method, then:
Retroviral Production: The BRAF-KIAA1549 fusion mutant was subcloned into pMXs-IRES-Blasticidin (RTV-016, Cell Biolabs, San Diego, CA). Retrovirus was produced by transfection of HEK 293T cells with the retroviral BRAF mutant expression vector pMXs-IRES-Blasticidin (RTV-016, Cell Biolabs), pCMV-Gag-Pol vector and pCMV-VSV-G-Envelope vector. Briefly, HEK 293T cells were plated in Poly-D-lysine coated 6-well plate (2.5×10^5 cells per well) and incubated overnight. The next day, retroviral plasmids (1 μg of BRAF-KIAA fusion mutant, 0.32 μg of pCMV-Gag-Pol and 0.165 μg pCMV-VSV-G) were mixed in 300 μL of Optimem (31985, Life Technologies). The mixture was incubated at room temperature for 5 minutes and then added to Optimem containing transfection reagent Lipofectamine (11668, Invitrogen) and incubated for 20 minutes. The mixture was then added dropwise to HEK 293T cells. The next day the medium was replaced with fresh culture medium and retrovirus was harvested at 24 hours.
Generation of BRAF-KIAA1549 fusion stable cell line: BaF3 cells were plated in V-bottom 96 well plate (COSTAR #3894) in 80 μL of RPMI/10% FBS and 0.01 ng/mL mouse IL-3, supplemented with 8 μg/mL polybrene (4×10^4 cells/well). Cells were transduced with 20 μL of BRAF-KIAA1549 fusion viral supernatant by centrifuging for 30 minutes at 1000 rpm. Cells were placed in a 37° C. incubator overnight. Next day 100 μL of RPMI/10% FBS and 0.01 ng/mL mouse IL-3 was added. After 24 hours, 100 μL of cells were transferred to a 24 well plate containing 900 μL of RPM/10% FBS and 15 μg/mL Blasticidin. Contents of the 24 well plate were sampled for cell viability via CellTiterGlo (Promega) over a 2-week period.
Assay for cell proliferation: BaF3 BRAF-KIAA1549 fusion cells were resuspended at 1.5×10^5 c/mL in RPMI containing 10% Heat Inactivated FBS, 1% L-glutamine and dispensed in duplicate (7×10^4 c/well) into 384 well plates. To determine the effect of compound on cell proliferation, BaF3 BRAF-KIAA1549 fusion cells were incubated for 96 hours in the presence of vehicle control (DMSO) or compound at varying concentrations. Inhibition of cell growth was determined by luminescent quantification (Envision by Perkin Elmer) of intracellular ATP content using CellTiterGlo (Promega), according to the protocol provided by the manufacturer. To determine the IC50 values, the vehicle-treated cells were normalized as viable cells and analyzed using the CDD Vault, Collaborative Drug Discovery, Burlingame, CA (the Levenberg-Marquardt algorithm; Levenberg, K., […]; Marquardt, D., 1963).
Tables A1 and A2 assign each compound a code for potency in the BaF3 BRAF-KIAA1549 fusion cell proliferation assay: A, B, C, or D. According to the code, A represents an IC50 value <20 nM; B represents an IC50 value ≥20 nM and <100 nM; C represents an IC50 value ≥100 nM and <500 nM; and D represents an IC50 value ≥500 nM.
For orientation: Cellular ATP, detected with luciferase, serves as a proxy for viable cell number.
What is called GI50 is the concentration at which growth is held to half of that of the control. A low value points to greater sensitivity of the cells. As for `CNc1cc2ncc(-c3cc(NC(=O)C[C@@H]4C[C@H](C(F)(F)F)CCO4)ccc3C)cc2cn1` (single isomer, unassigned) [Compound 7, N-(4-Methyl-3-(7-(methylamino)-1,6-naphthyridin-3-yl)phenyl)-2-(4-(trifluoromethyl)tetrahydro-2H-pyran-2-yl)acetamide], the GI50 is less than 20 nM.
Still for that read-out and setting: in the case of `CNc1cc2ncc(-c3cc(NC(=O)C[C@@H]4C[C@H](C(F)(F)F)CCO4)cnc3C)cc2cn1` (single isomer, unassigned) [Compound 35] it was 20 to 100 nM; in that of `CNc1cc2ncc(-c3cc(NC(=O)C[C@H]4C[C@H](C(F)(F)F)CCO4)cnc3C)cc2cn1` (single isomer, unassigned) [Compound 36], 100 to 500 nM.
The compound `CNc1cc2ncc(-c3cc(NC(=O)[C@H](C)n4cnc(C(F)(F)F)n4)ccc3C)cc2cn1` (single isomer, unassigned) [Compound 68] had a GI50 of 20 to 100 nM.
`CNc1cc2ncc(-c3cc(NC(=O)[C@@H](C)n4cnc(C(F)(F)F)n4)ccc3C)cc2cn1` (single isomer, unassigned) [Compound 69]: the 50% growth inhibitory concentration (GI50) is 100 to 500 nM.
The same measure, in the same setting: the figure for `CNc1cc2ncc(-c3cc(NC(=O)c4cc(C(F)(F)F)ccn4)ccc3C)cc2cn1` [Compound 1, N-(4-methyl-3-(7-(methylamino)-1,6-naphthyridin-3-yl)phenyl)-4-(trifluoromethyl)picolinamide] is less than 20 nM; for `CNc1cc2ncc(-c3cc(NC(=O)c4ccnc(C(F)(F)F)c4)ccc3C)cc2cn1` [Compound 2, N-(4-methyl-3-(7-(methylamino)-1,6-naphthyridin-3-yl)phenyl)-2-(trifluoromethyl)isonicotinamide] it is 20 to 100 nM.
The same measure, in the same setting: in the case of `CNc1cc2ncc(-c3cc(NC(=O)c4cncc(C(F)(F)F)c4)ccc3C)cc2cn1` [Compound 3, N-(4-methyl-3-(7-(methylamino)-1,6-naphthyridin-3-yl)phenyl)-5-(trifluoromethyl)nicotinamide] it was less than 20 nM; in that of `CNc1cc2ncc(-c3cc(NC(=O)c4cccc(N(C)C)c4)ccc3C)cc2cn1` [Compound 4, 3-(Dimethylamino)-N-(4-methyl-3-(7-(methylamino)-1,6-naphthyridin-3-yl)phenyl)benzamide], less than 20 nM.
Same read-out and setting: the figure for `CNc1cc2ncc(-c3cc(NC(=O)c4cc(C(F)(F)F)c(C)cn4)ccc3C)cc2cn1` [Compound 5, 5-Methyl-N-(4-methyl-3-(7-(methylamino)-1,6-naphthyridin-3-yl)phenyl)-4-(trifluoromethyl)picolinamide] is 20 to 100 nM; for `CNc1cc2ncc(-c3cc(NC(=O)c4nccc(C(F)(F)F)c4Cl)ccc3C)cc2cn1` [Compound 6, 3-Chloro-N-(4-methyl-3-(7-(methylamino)-1,6-naphthyridin-3-yl)phenyl)-4-(trifluoromethyl)picolinamide] it is less than 20 nM; for `CNc1cc2ncc(-c3cc(NC(=O)c4ccnc(C(F)F)c4)ccc3C)cc2cn1` [Compound 8, 2-(Difluoromethyl)-N-(4-methyl-3-(7-(methylamino)-1,6-naphthyridin-3-yl)phenyl)isonicotinamide] it is 20 to 100 nM.
`CNc1cc2ncc(-c3cc(NC(=O)c4ccnc(C(C)(F)F)c4)ccc3C)cc2cn1` [Compound 9, 2-(1,1-difluoroethyl)-N-(4-methyl-3-(7-(methylamino)-1,6-naphthyridin-3-yl)phenyl)isonicotinamide] came in with a GI50 of less than 20 nM.
Still for that read-out and setting: the figure for `CNc1cc2ncc(-c3cc(NC(=O)c4ccnc(C(C)(C)F)c4)ccc3C)cc2cn1` [Compound 10, 2-(2-Fluoropropan-2-yl)-N-(4-methyl-3-(7-(methylamino)-1,6-naphthyridin-3-yl)phenyl)isonicotinamide] is less than 20 nM.
As for `CNc1cc2ncc(-c3cc(NC(=O)c4cc(C(F)F)ccn4)ccc3C)cc2cn1` [Compound 11, 4-(Difluoromethyl)-N-(4-methyl-3-(7-(methylamino)-1,6-naphthyridin-3-yl)phenyl)picolinamide], the 50% growth inhibitory concentration (GI50) lay in the range of 20 to 100 nM.
As to `CNc1cc2ncc(-c3cc(NC(=O)c4cc(C(C)(F)F)ccn4)ccc3C)cc2cn1` [Compound 12, 4-(1,1-Difluoroethyl)-N-(4-methyl-3-(7-(methylamino)-1,6-naphthyridin-3-yl)phenyl)picolinamide], the concentration for 50% growth inhibition (GI50) lay in the range of 20 to 100 nM.
Turning to `CNc1cc2ncc(-c3cc(NC(=O)c4cc(C(C)(C)F)ccn4)ccc3C)cc2cn1` [Compound 13, 4-(2-Fluoropropan-2-yl)-N-(4-methyl-3-(7-(methylamino)-1,6-naphthyridin-3-yl)phenyl)picolinamide], the GI50 was 100 to 500 nM.
Still for that read-out and setting: in the case of `CNc1cc2ncc(-c3cc(NC(=O)c4cc(C(C)(C)C#N)ccn4)ccc3C)cc2cn1` [Compound 14, 4-(2-Cyanopropan-2-yl)-N-(4-methyl-3-(7-(methylamino)-1,6-naphthyridin-3-yl)phenyl)picolinamide] it was less than 20 nM; in that of `CNc1cc2ncc(-c3cc(NC(=O)c4cc(C5(C#N)CCC5)ccn4)ccc3C)cc2cn1` [Compound 15, 4-(1-Cyanocyclobutyl)-N-(4-methyl-3-(7-(methylamino)-1,6-naphthyridin-3-yl)phenyl)picolinamide], 20 to 100 nM; in that of `CNc1cc2ncc(-c3cc(NC(=O)c4cc(C5(C#N)CC5)ccn4)ccc3C)cc2cn1` [Compound 16, 4-(1-Cyanocyclopropyl)-N-(4-methyl-3-(7-(methylamino)-1,6-naphthyridin-3-yl)phenyl)picolinamide], less than 20 nM.
`CNc1cc2ncc(-c3cc(NC(=O)c4ccnc(C5CC(F)(F)C5)c4)ccc3C)cc2cn1` [Compound 17, 2-(3,3-Difluorocyclobutyl)-N-(4-methyl-3-(7-(methylamino)-1,6-naphthyridin-3-yl)phenyl)isonicotinamide] returned a GI50 of less than 20 nM.

The same test, now with this note: Table A2.
Compound `CNc1cc2ncc(-c3cc(NC(=O)c4cccc5c4CCC[C@@H]5O)cnc3C)cc2cn1` (single isomer, unassigned) [Compound 207] gave a GI50 not below 500 nM.
Turning to `CNc1cc2ncc(-c3cc(NC(=O)c4cccc5c4CCC[C@H]5O)cnc3C)cc2cn1` (single isomer, unassigned) [Compound 208], the concentration for 50% growth inhibition (GI50) was not below 500 nM.
`CNc1cc2ncc(-c3cc(NC(=O)c4cnc5n4C[C@H](C)CC5)ccc3C)cc2cn1` (single isomer, unassigned) [Compound 230] came in with a GI50 of 20 to 100 nM.
Still for that read-out and setting: the figure for `CNc1cc2ncc(-c3cc(NC(=O)c4cnc5n4C[C@@H](C)CC5)ccc3C)cc2cn1` (single isomer, unassigned) [Compound 231] is 20 to 100 nM.
Still for that read-out and setting: in the case of `CNc1cc2ncc(-c3cc(NC(=O)c4noc5c4C[C@@H](C)CC5)ccc3C)cc2cn1` (single isomer, unassigned) [Compound 236] it was 20 to 100 nM; in that of `CNc1cc2ncc(-c3cc(NC(=O)c4noc5c4C[C@H](C)CC5)ccc3C)cc2cn1` (single isomer, unassigned) [Compound 237], 20 to 100 nM.
The compound `CNc1cc2ncc(-c3cc(NC(=O)c4cc([C@@H](O)C(C)(F)F)ccn4)cnc3C)cc2cn1` (single isomer, unassigned) [Compound 248] displayed a GI50 of 20 to 100 nM.
The same measure, in the same setting: the figure for `CNc1cc2ncc(-c3cc(NC(=O)c4cc([C@H](O)C(C)(F)F)ccn4)cnc3C)cc2cn1` (single isomer, unassigned) [Compound 249] is 20 to 100 nM.
Same read-out and setting: the figure for `CNc1cc2ncc(-c3cc(NC(=O)c4cnc5n4C[C@@H](C)CC5)cnc3C)cc2cn1` (single isomer, unassigned) [Compound 258] is 20 to 100 nM; for `CNc1cc2ncc(-c3cc(NC(=O)c4cnc5n4C[C@H](C)CC5)cnc3C)cc2cn1` (single isomer, unassigned) [Compound 259] it is 20 to 100 nM.
The compound `CNc1cc2ncc(-c3cc(NC(=O)N4CC[C@@H](CC(F)(F)F)C4)ccc3C)cc2cn1` (single isomer, unassigned) [Compound 267] displayed a concentration for 50% growth inhibition (GI50) of less than 20 nM.
